Series [1] relates to Huh7 cells. Kind of series: MTS assay to determine cytotoxicity. The class given is cell-based, human. The settings on record: 24 hours, up to 50 μM. Here is the method:
MTS assay to determine cytotoxicity. Cultured human Huh7 cells are treated with increasing amounts of KIN600 or equivalent amounts of DMSO diluted in media for 24 hours to see their effect on cell viability.
Cell Titer One (Promega) is the one step reagent used according to manufacturer's protocol, and cells are incubated for three hours in the presence of reagent before O.D. reading is done. Compounds were diluted to final concentrations of 0, 5, 10, 20, and 50 μM in media containing 0.5% DMSO. Negative control wells contain no compound and positive control for cytotoxicity is examined using an EMCV infection which causes 100% cytopathic effect. Each compound concentration and control is done in triplicate wells to generate error bars.
Final KIN600 concentrations of 50 μM, 20 μM, 10 μM, and 5 μM were made in 0.5% DMSO containing media and were added to Huh7 cells to examine cytotoxicity in a MTS assay. Cells were treated for 24 hours with varying concentrations of compound and were analyzed for cell viability compared to negative control samples that were not treated with compound but grown in DMSO containing media. The cellular metabolism (O.D.) was in the range of 1.75 to below 2.0 at compound concentrations of 50 μM, 20 μM, 10 μM, 5 μM, and 0.

Series [2] deals with HCV2a virus. Kind of series: HCV IF antiviral assay. Format: cell-based, Hepatitis C virus.
The test system of series [3] is Murine Encephalomyocarditis virus (EMCV). Kind of series: EMCV antiviral assay (cell viability by MTS after infection). The settings on record: Huh7 cells, 250 pfu EMCV, 18 hours.

Entries after “also recorded” stand apart in the source; their conditions may differ.

Experimental findings from patent US8895608B2, “Sulfonamide anti-viral compounds” (Kineta, Inc., priority 2010, dated 2014) are described below.

`COC(=O)c1sccc1S(=O)(=O)Nc1ccc2c(c1)OCO2` [KIN600]: the “cytotoxicity (result in words)” value in series [1] was “no significant cytotoxicity; also recorded: no significant toxicity”. The “HCV infected foci (number of FFU/well)” value in series [2] (Huh7 cells pre-treated 24 hours at 10 μM, HCV2a MOI 0.1-0.5) was determined as 12±4 FFU/well. In addition, the “antiviral activity against HCV (result in words)” value in series [2] (Huh7 cells, HCV2a) was “showed antiviral activity; also recorded: has antiviral properties”. Further, the Cell viability post-infection in series [3] (5 μL) is recorded as around 0.7; in series [3] (10 μL), around 1.4.
